The test system of assay [1] is denatured collagen type-IV. In words: 99Tc-CLK-Peptide competitive binding to denatured collagen type-IV (gamma counter). The following applies: 99Tc-CLK-peptide 10 μg/ml, 50 μl/well; collagen 10 μg/ml. As to the method: FIG. 18 Inhibition of 99Tc-CLK-Peptide binding by unlabeled HUI77.
FIG. 19 Inhibition of Binding of Labeled CLK-Peptide to Denatured Collagen Type-IV by mAb HUI77. Denatured collagen type-IV (10 μg/ml) was coated on microtiter wells and binding of 99Tc-labeled CLK-Peptide in the presence or absence of unlabeled CLK-peptide or mAb HUI77 was measured. As shown in the figure, 99Tc-CLK-peptide (10 μg/ml, 50 μl/well) specifically binds to denatured collagen type-IV (first bar from left). […] 99Tc-CLK-peptide was also allowed to bind to denatured collagen type-IV in the presence or absence of Mab HUI77 (fourth and fifth bars from left). […] These findings provide further evidence that the CLK-peptide binds to a similar if not identical epitope recognized by Mab HUI77.
^99Tc-CLK-Peptide was used in competitive binding studies to further characterize the CLK epitope. To evaluate the ability of HUI77 to compete with binding to denatured type-IV collagen, type-IV collagen was denatured at 60° C. for 15 minutes at a concentration of […] in PBS. […] The supernatant, washes and collagen-coated wells were counted in a gamma counter (1 minute counts in duplicate).
In addition, denatured collagen type-IV (10 μg/ml) was coated on microtiter wells and binding of ^99Tc-labeled CLK-Peptide in the presence or absence of either unlabeled CLK-peptide or mAb HUI77 was measured using a gamma counter. […]

The next assay concerns Human melanoma cells M21. In words: M21 melanoma cell adhesion to denatured collagen type-IV (Example 2). The assay is classed as cell-based. The following applies: M21 cells on denatured collagen type-IV; peptide 250 μg/ml. From the text: FIG. 1 is a chart which illustrates M21 human melanoma cell adhesion to untreated denatured type-IV collagen (NT), CLK-peptide treated denatured collagen type-IV, SLK-peptide treated denatured collagen type-IV, and SDR-peptide treated denatured collagen type-IV.
SLK peptides bind to functional epitopes within denatured collagen type-IV that regulate cellular adhesion. Non-tissue culture treated 48-well plates were coated with denatured collagen type-IV. Human melanoma cells M21 (Scripps Research Institute, La Jolla, Calif.) were allowed to attach to the coated wells in the presence or absence of the synthetic peptides CLK, SLK, and SDR, each peptide was at a concentration of 250 μg/ml. SDR peptide is a commercially available peptide that was used as a control (QED Bioscience, Inc., San Diego, Calif.).
Human denatured collagen type-IV (25 μg/ml) was immobilized on 48-well nontissue culture treated plates. Wells were washed and incubated with 1% BSA (bovine serum albumin) in PBS (phosphate-buffered saline) for one hour at 37° C. Subconfluent […] were harvested, washed, and resuspended in adhesion buffer containing RPMI-1640 medium, 1 mM MgCl2, 0.2 mM MnCl2, and 0.5% BSA. […] Cell adhesion was quantified by measuring the optical density of eluted crystal violet at a wavelength of 600 nm.

Assay [2] deals with Human melanoma cells (M21). In words: M21 cell adhesion to denatured or native collagen type-IV or fibronectin (Example 9). The assay is classed as cell-based. Particulars: 0-100 μg/ml. How it is done: Non-tissue culture treated 48-well plates were coated with denatured collagen type-IV at 10 μg/ml. […] Cell adhesion was quantified by measuring the O.D. of eluted dye at 600 nm. Data bars represent the mean O.D.±standard deviation from triplicate wells. Assays were completed 2 to 3 times with similar results.
Non-tissue culture treated 48-well plates were coated with native collagen type-IV or fibronectin at 10 μg/ml. Human melanoma cells (M21) were allowed to attach to the coated wells in the presence or absence of CLK-Peptide or control peptide CTW at 0-100 μg/ml. Cell adhesion was quantified by measuring the O.D. of eluted dye at 600 nm. Data bars represent the mean O.D.±standard deviation from triplicate wells. Assays were completed 2 to 3 times with similar results. A. Adhesion to native collagen type-IV. B. Adhesion to Fibronectin.
Adhesion assays were performed to study the effects of CLK-peptide on tumor cell adhesion in vitro. Microtiter wells were coated with either native collagen type-IV or the control ECM protein fibronectin. Malignant melanoma cells (M21) were allowed to bind to the coated substrates in the presence or absence of CLK peptide or a control peptide, CTW.

Assay [3] has as its system Glioblastoma (GL261) cells. The experiment in a line: GL261 glioblastoma cell adhesion to collagen type-IV. Format: cell-based, murine. The following applies: 50 μg/ml. As to the method:
FIG. 21 Effects of CLK-Peptide on Glioblastoma Cell Adhesion to Denatured Collagen Type-IV.
To assess the functional significance of the HUI77/CLK cryptic epitope, cell adhesion assays using a glioblastoma cell line were performed. Microtiter plates were coated with denatured collagen type-IV (10 μg/ml). Glioblastoma (GL261) cells were resuspended in adhesion buffer in the presence or absence of CLK-peptide or a non-specific control (CTW) peptide (50 μg/ml) and the […] were incubated in the coated wells for 30 minutes. Non-attached cells were removed by washing, and attached cells quantified by staining with crystal violet.

Assay [4] has as its system Human endothelial cells (HUVECs). In words: Endothelial cord formation in MATRIGEL
The assay is classed as cell-based. Particulars: 0 to 100 μg/ml, 24 hours. As to the method:
FIG. 6 Effects of CLK Peptide on HUVEC Cord Formation in MATRIGEL®. MATRIGEL was added to 96-well plates and allowed to form three-dimensional gels. […] Representative photos were taken at a magnification of 100×. A. Untreated control. B. CLK 25 μg/ml. C. CLK 50 μg/ml. D. CLK 100 μg/ml. E. Control Peptide 100 μg/ml.
The role that the CLK cryptic collagen epitope plays in regulating endothelial cell morphogenesis and cord formation, processes important in angiogenesis, were investigated. MATRIGEL was diluted in M199 medium and 300 μl were added to the wells of a 48-well culture plate and allowed to polymerize. […] Endothelial morphogenesis and cord formation was monitored with an inverted microscope fitted with a 35 mm camera to document cord formation.

No end group written: not given here.

As to “99Tc-CLK-peptide: 99Tc-labeled CLK-Peptide used in competitive binding studies (CLKQNGGNFSLG; also: 99Tc-labeled, site not given here)”, the “binding to denatured collagen type-IV” value in assay [1] was “specifically bound”.
With “NH2-S-L-K-Q-N-G-G-N-F-S-L-C-COOH (H-SLKQNGGNFSLC-OH) [SLK-peptide]”, the “blockade of melanoma cell adhesion” value in the assay on Human melanoma cells M21 was “about 50%”.
With “CTWPRHHTTDALL (control peptide) [reference compound]”, in assay [2], the “effect on M21 cell adhesion to fibronectin” value was “Neither CLK-Peptide nor the control peptide had any effect”, the “effect on M21 cell adhesion to native triple helical collagen type-IV” value was “Neither CLK-Peptide nor the control peptide had any effect” and the “effect on M21 cell attachment to denatured collagen type-IV” value is on record as “no effect”. Besides, the “effect on glioblastoma cell adhesion to denatured collagen type-IV” value in assay [3] is on record as “no effect”. In addition, the “effect on endothelial cord formation” value in assay [4] is on record as “little if any effect”.

Values taken from patent US8133471B2, “CLK-peptide and SLK-peptide” (New York University, priority 2003, dated 2012).
